This note sets out measurements from US20110206711A1, “METHOD FOR INDUCING CYTOTOXIC T-CELLS, CYTOTOXIC T-CELL INDUCER, AND PHARMACEUTICAL COMPOSITION AND VACCINE EMPLOYING SAME” (priority 2006, published 2011).

For series [1], the system named is HCV genome-expressing RzM6 cells. The experiment in a line: Cytolysis assay against HCV genome-expressing cells. It counts as cell-based, human. To be noted: RzM6 cells vs HepG2 control; E/T ratio 10; 3 hours; FIG. 4. The source says:
RzM6 cells were formed by transfecting HepG2, which is a human liver cell strain, with an HCV gene that had been modified so as to be able to conditionally induce expression of an HCV1b full genome (AY045702) in the presence of Cre (Activation of the CK1-CDK-Rb-E2F pathway in full genome hepatitis C virus-expressing cells. Tsukiyama-Kohara et al., J. Biol. Chem. 279, 14531-14541, 2004, RzM6 being supplied by Dr. Michinori Obara, Tokyo Metropolitan Institute of Medical Science).
In the HCV expression method, since the same RzM6 cells are doubly transfected with the Cre gene inserted in a conditional expression cassette arranged downstream of a Tamoxifen-inducible promoter, by adding tamoxifen, expression of Cre is induced, and as a result expression of the HCV gene can be induced. The RzM6 cells for which expression of the HCV gene was induced were labeled with ^51Cr by the same method as for the C1R-A24 cells, thus serving as target cells.
The cytotoxic T-cells prepared above and RzM6 target cells or HepG2 cells with no HCV introduced as a control were mixed at an E/T ratio of 10 and allowed to stand at 37° C. for 3 hours, and the radioactivity of ^51Cr released into the culture supernatant was measured.

For series [2], the target named is HLA-A24 molecule (product of the HLA-A*2402 gene) (Homo sapiens, UniProt P04439, D101N/D140Y/D185E/E176V/E190D/F33S/G103R/G107R/I119L/I121M/I306V/K335N/L105A/L180Q/L300P/N151K/N90K/Q86E/Q94H/R106L/R138H/R89G/T104I/T345S/V100E/W191G/Y123F). The experiment in a line: Experiment of binding peptide to HLA-A24 molecule (C1R-A24 cells, flow cytometry).
Series [3] has as its system peptide-loaded C1R-A24 cells and T2-A24 cells. The experiment in a line: Cytotoxic T-cell induction experiment (51Cr release, human PBMCs). It counts as cell-based. The note with it: peptide 1 μM; blood samples from 8 (or 7) people; E/T ratio 10 to 20; FIG. 2 and FIG. 3. The protocol: The following experiment was carried out using a human blood sample.
Blood was sampled from a hepatitis C patient or a healthy individual from whom informed consent had been obtained in advance.
To blood cells (Peripheral blood mononuclear cells: PBMCs) sown on 96 well plates peptides of SEQ ID NOS: 1 to 14 were added weekly for 5 weeks so as to give final concentrations of 1 μM, and cytotoxic T-cells were activated in media to which was added 10% FCS and 5 ng/mL of IL-2, thus giving T-cell samples.
Cells were labeled with ^51Cr by adding the sodium salt of ^51Cr (sodium chromate) to C1R-A24 cells and T2-A24 cells (human B/T cultured cell strain having no TAP peptide transporter and expressing the HLA-A*2402 gene: supplied by Dr. Tsuboi, Faculty of Medicine, Osaka University) at 37° C. or 26° C. for 1 hour. Peptides of SEQ ID NOS: 1 to 14 were added thereto so as to make final concentrations of 1 μM, thus forming target cells having each peptide binding to the surface of the cells.
After the cytotoxic T-cells and the target cells prepared above were mixed at an E/T ratio (effector to target) of 10 to 20 and allowed to stand at 37° C. for 3.5 hours, the radioactivity of ^51Cr released in the culture supernatant was measured.

“Also recorded” adds a separate entry of the source. Ends that are not written are not given here.

Turning to ALYGVYPLL [SEQ ID NO: 5], the “cytolytic activity specific to HCV-expressing cells by the cytotoxic T-cells” value (“cytolytic activity specific” for short) in series [1] is on record as “a cytolytic activity specific to HCV-expressing cells by the cytotoxic T-cells was exhibited”.

Take AYSQQTRGL [SEQ ID NO: 8]: the “cytolytic activity specific” value in series [1] is on record as “a cytolytic activity specific to HCV-expressing cells by the cytotoxic T-cells was exhibited”.

Consider FWAKMMYNF [SEQ ID NO: 14], for which, in series [2], the “binding in HLA molecule binding experiment” value is reported as “high binding”. Besides, the “capability of inducing cytotoxic T-cells” value in series [3] is “did not show a capability of inducing cytotoxic T-cells; also recorded: none of the blood samples showed a capability of inducing cytotoxic T-cells”.

In the case of ILMTHFFSI [SEQ ID NO: 13], the “cytolytic activity specific” value in series [1] is recorded as “a cytolytic activity specific to HCV-expressing cells by the cytotoxic T-cells was exhibited”.

ILPCSFTTL [SEQ ID NO: 4]: the “cytolytic activity specific” value in series [1] is “a cytolytic activity specific to HCV-expressing cells by the cytotoxic T-cells was exhibited”.

For ITYSTYCKF [SEQ ID NO: 9], the “cytolytic activity specific” value in series [1] was “a cytolytic activity specific to HCV-expressing cells by the cytotoxic T-cells was exhibited”.

On to RYAPACKPL [SEQ ID NO: 10], for which the “cytolytic activity specific” value in series [1] is given as “a cytolytic activity specific to HCV-expressing cells by the cytotoxic T-cells was exhibited”.

Take SYTWTGALI [SEQ ID NO: 12]: the “cytolytic activity specific” value in series [1] was “a cytolytic activity specific to HCV-expressing cells by the cytotoxic T-cells was exhibited”.

WHYPCTVNF [SEQ ID NO: 2]: the “cytolytic activity specific” value in series [1] is recorded as “a cytolytic activity specific to HCV-expressing cells by the cytotoxic T-cells was exhibited”.
